According to paper PMC11995724, “Antibiotic target discovery by integrated phenotypic and activity-based profiling of electrophilic fragments” (Cell chemical biology, 2025):

Experiment: in vitro
Conditions: human, hek293t cells

| Structure (SMILES) | viability at 48 h, 25 µM [%] |
| --- | --- |
| C=CC(=O)N1CCCC(S(C)(=O)=O)C1 (stereo not drawn) [1-J18, 1-(3-methanesulfonylpiperidin-1-yl)prop-2-en-1-one] | 63.9 |
| C=CC(=O)NCc1ccccc1-n1ccc(C)n1 [1-J19, N-{[2-(3-methyl-1H-pyrazol-1-yl)phenyl]methyl}prop-2-enamide] | 126 |
| C=CC(=O)N1CCN(c2nc(CC)ns2)CC1 [1-J20, 1-[4-(3-ethyl-1,2,4-thiadiazol-5-yl)piperazin-1-yl]prop-2-en-1-one] | 46.2 |
| C=CC(=O)Nc1nc2c(s1)-c1cc(OC)ccc1CC2 [1-J21, N-{8-methoxy-4H,5H-naphtho[2,1-d][1,3]thiazol-2-yl}prop-2-enamide] | 118 |
| C=CC(=O)Nc1sc2c(c1C(=O)c1ccc(C)cc1)CCOC2 [1-J22, N-[3-(4-methylbenzoyl)-4H,5H,7H-thieno[2,3-c]pyran-2-yl]prop-2-enamide] | 0.993 |
| C=CC(=O)NCc1nc(C(=O)O)c(C)s1 [1-K03, 5-methyl-2-[(prop-2-enamido)methyl]-1,3-thiazole-4-carboxylic acid] | 80.8 |
| C=CC(=O)Nc1cccc(N2CCOCC2)c1 [1-K04, N-[3-(morpholin-4-yl)phenyl]prop-2-enamide] | 74.1 |
| C=CC(=O)N1CCN(c2nc3ccccc3o2)CC1 [1-K05, 1-[4-(1,3-benzoxazol-2-yl)piperazin-1-yl]prop-2-en-1-one] | 75.6 |
| C=CC(=O)N[C@@H](C)c1ccccc1OC [1-K06, N-[(1S)-1-(2-methoxyphenyl)ethyl]prop-2-enamide] | 84.3 |
| C=CC(=O)NCC1CSCCS1 (stereo not drawn) [1-K07, N-[(1,4-dithian-2-yl)methyl]prop-2-enamide] | 78.1 |
| C=CC(=O)NCc1ccsc1-n1cccc1 [1-K08, N-{[2-(1H-pyrrol-1-yl)thiophen-3-yl]methyl}prop-2-enamide] | 153 |
| C=CC(=O)N1CCn2cccc2C12COC2 [1-K09, 1-{3',4'-dihydro-2'H-spiro[oxetane-3,1'-pyrrolo[1,2-a]pyrazin]-2'-yl}prop-2-en-1-one] | 80.6 |
| C=CC(=O)NCc1ccc(OC)cc1 [1-K10, N-[(4-methoxyphenyl)methyl]prop-2-enamide] | 92 |
| C=CC(=O)Nc1cc(S(=O)(=O)N(C)C)cc(C)c1C [1-K11, N-[5-(dimethylsulfamoyl)-2,3-dimethylphenyl]prop-2-enamide] | 71.3 |
| C=CC(=O)NC1CCCN(Cc2ccccc2)C1 (stereo not drawn) [1-K12, N-(1-benzylpiperidin-3-yl)prop-2-enamide] | 82.8 |
| C=CC(=O)N1CCC(NC(=O)Nc2ccccc2OC)CC1 [1-K13, 3-(2-methoxyphenyl)-1-[1-(prop-2-enoyl)piperidin-4-yl]urea] | 106 |
| C=CC(=O)Nc1cccc(-c2cn(C)nn2)c1 [1-K14, N-[3-(1-methyl-1H-1,2,3-triazol-4-yl)phenyl]prop-2-enamide] | 82.8 |
| C=CC(=O)Nc1ccc(C(=O)Nc2ccc(N3CCOCC3)nc2)cc1 [1-K15, N-[6-(morpholin-4-yl)pyridin-3-yl]-4-(prop-2-enamido)benzamide] | 1.79 |
| C=CC(=O)Nc1ccc(-c2noc(C)n2)cc1 [1-K16, N-[4-(5-methyl-1,2,4-oxadiazol-3-yl)phenyl]prop-2-enamide] | 60.2 |
| C=CC(=O)NC12CC3(C)CC(C)(CC(O)(C3)C1)C2 [1-K17, N-(3-hydroxy-5,7-dimethyladamantan-1-yl)prop-2-enamide] | 85.3 |

| Structure (SMILES) | viability at 48 h, 25 µM [%] |
| --- | --- |
| C=CC(=O)NC1CCN(S(N)(=O)=O)CC1 [1-K18, N-(1-sulfamoylpiperidin-4-yl)prop-2-enamide] | 93.7 |
| C=CC(=O)Nc1cc(-c2ccco2)nn1C(C)(C)C [1-K19, N-[1-tert-butyl-3-(furan-2-yl)-1H-pyrazol-5-yl]prop-2-enamide] | 118 |
| C=CC(=O)N1CC(c2cc(CO)on2)C1 [1-K20, 1-{3-[5-(hydroxymethyl)-1,2-oxazol-3-yl]azetidin-1-yl}prop-2-en-1-one] | 103 |
| C=CC(=O)NCC(CC)n1nc(C)cc1C (stereo not drawn) [1-K21, N-[2-(3,5-dimethyl-1H-pyrazol-1-yl)butyl]prop-2-enamide] | 108 |
| C=CC(=O)N1CCC(n2ncc3ccccc32)CC1 [1-K22, 1-[4-(1H-indazol-1-yl)piperidin-1-yl]prop-2-en-1-one] | 94.9 |
| C=CC(=O)NC1CCN(c2nc(C3CC3)cc(C(F)(F)F)n2)CC1 [1-L03, N-{1-[4-cyclopropyl-6-(trifluoromethyl)pyrimidin-2-yl]piperidin-4-yl}prop-2-enamide] | 108 |
| C=CC(=O)N1CCC(C(=O)NC(C)(C)c2ccc(F)c(F)c2)CC1 [1-L04, N-[2-(3,4-difluorophenyl)propan-2-yl]-1-(prop-2-enoyl)piperidine-4-carboxamide] | 91.1 |
| C=CC(=O)NCc1cc(Cl)c2c(c1)OCCO2 [1-L05, N-[(8-chloro-2,3-dihydro-1,4-benzodioxin-6-yl)methyl]prop-2-enamide] | 112 |
| C=CC(=O)NCCc1cnc2c(Cl)cnn2c1 [1-L06, N-(2-{3-chloropyrazolo[1,5-a]pyrimidin-6-yl}ethyl)prop-2-enamide] | 74.5 |
| C=CC(=O)N1CCC(OC2CCCC2)CC1 [1-L07, 1-[4-(cyclopentyloxy)piperidin-1-yl]prop-2-en-1-one] | 96.8 |
| C=CC(=O)N1CCOC2(CCCCCC2)C1 [1-L08, 1-{1-oxa-4-azaspiro[5.6]dodecan-4-yl}prop-2-en-1-one] | 73.9 |
| C=CC(=O)N(Cc1ccc2c(c1)CCC2)Cc1c(C)noc1C [1-L09, N-[(2,3-dihydro-1H-inden-5-yl)methyl]-N-[(3,5-dimethyl-1,2-oxazol-4-yl)methyl]prop-2-enamide] | 92.1 |
| C=CC(=O)NCc1cc(C2CC2)nn1C [1-L10, N-[(3-cyclopropyl-1-methyl-1H-pyrazol-5-yl)methyl]prop-2-enamide] | 92.5 |
| C=CC(=O)NCC(=O)Nc1ccc2c[nH]nc2c1 [1-L11, N-{[(2H-indazol-6-yl)carbamoyl]methyl}prop-2-enamide] | 89.7 |
| C=CC(=O)N1CCOCC1c1ncnn1Cc1ccccc1 (stereo not drawn) [1-L12, 1-[3-(1-benzyl-1H-1,2,4-triazol-5-yl)morpholin-4-yl]prop-2-en-1-one] | 63.7 |
| C=CC(=O)N(Cc1cc(F)c(F)c(F)c1)C(C)C1CCCO1 (stereo not drawn) [1-L13, N-[1-(oxolan-2-yl)ethyl]-N-[(3,4,5-trifluorophenyl)methyl]prop-2-enamide] | 176 |
| C=CC(=O)N1CC(C)(C)c2cc(Cl)ccc21 [1-L14, 1-(5-chloro-3,3-dimethyl-2,3-dihydro-1H-indol-1-yl)prop-2-en-1-one] | 1.22 |
| C=CC(=O)N(Cc1cccs1)C1CCc2cnn(C(C)C)c2C1 (stereo not drawn) [1-L15, N-[1-(propan-2-yl)-4,5,6,7-tetrahydro-1H-indazol-6-yl]-N-[(thiophen-2-yl)methyl]prop-2-enamide] | 82.3 |
| C=CC(=O)N(C)Cc1ccn(CC)n1 [1-L16, N-[(1-ethyl-1H-pyrazol-3-yl)methyl]-N-methylprop-2-enamide] | 75.2 |
